According to publication PMC3409115, “Diverse Inhibitor Chemotypes Targeting Trypanosoma cruzi CYP51” (PLoS Neglected Tropical Diseases, 2012):
Where two headings read alike, the source gives them in different places.

Key:
[1] = test system: T. cruzi-infected skeletal myoblasts (intracellular amastigotes); assay: Hit cross-validation in T. cruzi-infected mammalian cells (image-based assay); assay type: cell-based, Trypanosoma cruzi; conditions: read-out: EC50 against T. cruzi parasites in HTS assay used to rank order the hits
Description: Bovine embryo skeletal muscle cells or mouse C2C12 myoblasts (ATCC#CRL-1772) used in the cross-validation assay, were cultivated respectively in RPMI 1640 medium supplemented with 5% horse serum and Dulbecco's Modified Eagle's Medium H-21 containing 4.5 g/l glucose (DMEM H-21) (Cell Culture Facility, UCSF), supplemented with 5% fetal bovine serum (FBS) (Sigma Chemical Co., St. Louis, MO, USA), 25 mM HEPES, 2 mM L-glutamine, 100 U/ml penicillin, 100 µg/ml streptomycin. T. cruzi CAI-72 trypomastigotes were obtained from supernatant of infected cultures 4 to 7 days post-infection. Cultures were maintained at 37°C in an atmosphere of 5% CO2. To harvest parasites, the supernatant of infected cultures containing released trypomastigotes was collected and centrifuged at 600 rpm for 5 min to remove cell debris; the pellet was then discarded and the trypomastigotes remaining in the media were concentrated by spinning the culture tubes at 3300 rpm for 15 minutes. The parasite pellet was re-suspended in 2–5 ml of fresh media. Trypomastigote concentration was determined using a Neubauer hemocytometer.
(§1) Compound cross-validation in T. cruzi infected skeletal myoblasts (bovine embryo skeletal muscle or C2C12 lineage) was performed according to the protocol adapted from Engel and co-authors. Compounds stored as 10 mM stocks in DMSO were freshly diluted immediately prior to use. […] To prepare plates for the assay, skeletal myoblasts cultured in […] flasks were washed once with phosphate buffered saline (PBS) and then incubated with 0.25% trypsin in PBS for 1–3 minutes for detachment. The trypsin solution was removed and myoblasts were released from the flask bottom. Fresh medium was added and cell concentration was determined using a Neubauer hemocytometer. Myoblasts in 50 µl of culture medium were transferred to the clear-bottom wells of black 96-well plates (Greiner Bio-One, #655090) at a density of 1500 cells/well and infected with 50 µl trypomastigote culture at 7500 parasites/well (1∶5 ratio). The cells were allowed to adhere and spread for 24 h in the incubator before the media was removed and 100 µl of fresh medium containing 0, 0.04, 0.12, 0.37, 1.10, 3.30 or 10 µM of test compound was added to each well, followed by 72 h incubation at 37°C in an atmosphere of 5% CO2. Posaconazole was used as a positive control at the same concentrations as the test compounds. The cells were then fixed by adding 100 µl/well of 8% formaldehyde in PBS, resulting in a 4% working concentration of formaldehyde. To stain the nucleus of the host cell and the nucleus and kinetoplast of parasites, cell membranes were first permeabilized by washing once with 100 µl of 0.1% Triton X-100 in PBS, then treated for 1 h with 0.2 µg/ml of the fluorescent DNA dye, 4,6-diamidino-2-phenylindole (DAPI), followed by one wash with PBS. The fixed plates were kept at 4°C and protected from light until images were acquired.
(§2) Plates were allowed to equilibrate to room temperature and images were acquired by the IN Cell Analyzer 2000 (GE Healthcare) with a 20× objective, 5 fields per well, with 350/50 nm and 460/40 nm fluorescent excitation and emission filters. In the absence of drug cytotoxicity, at least 800 cells were imaged and counted per well. The images were processed and analyzed by IN Cell Analyzer Developer 1.6 software. The size parameters used to segment host and parasite organelles were 125 µm^2 for host nucleus, and 1–2 µm^2 for parasite nucleus/kinetoplast. Since DAPI also strongly stains host heterochromatin regions that display as shapes resembling parasites ( Figure 3 ), particles co-localized to host nuclei were excluded from quantification, while parasite aggregates near the host nucleus were counted as infected cells.

[2] = test system: host cell (skeletal myoblasts, bovine embryo skeletal muscle or C2C12); assay: Host cell toxicity in the cross-validation assay; assay type: cell-based; conditions: host cells in cross-validation assay, up to 10 µM
Description: as §1
as §2, with “cells. Numbers of host cells and intracellular amastigotes were determined based on host cell and parasite nucleus and parasite kinetoplast quantification, providing a measure of growth inhibition during the first 72 h of post-infection treatment compared to untreated controls.” for “cells.”
^aToxicity was assessed as the highest percentage of host cell growth inhibition caused by compound treatment. Scores are assigned as 1-<20%; 2-21-30%; 3- 31-40%; 4-41-50% and 5->50% growth inhibition.

T. cruzi CYP51 = molecular target: T1, T. cruzi CYP51 (Trypanosoma cruzi, UniProt Q7Z1V1); assay: HTS spectral-mode binding screen, type II difference spectra scored 0-5
T1 construct: had the first 21 residues upstream of K22 replaced with the fragment MAKKKKK; His6 (C); made in house
T1 sequence (Q7Z1V1 15-481, looked up, natural form): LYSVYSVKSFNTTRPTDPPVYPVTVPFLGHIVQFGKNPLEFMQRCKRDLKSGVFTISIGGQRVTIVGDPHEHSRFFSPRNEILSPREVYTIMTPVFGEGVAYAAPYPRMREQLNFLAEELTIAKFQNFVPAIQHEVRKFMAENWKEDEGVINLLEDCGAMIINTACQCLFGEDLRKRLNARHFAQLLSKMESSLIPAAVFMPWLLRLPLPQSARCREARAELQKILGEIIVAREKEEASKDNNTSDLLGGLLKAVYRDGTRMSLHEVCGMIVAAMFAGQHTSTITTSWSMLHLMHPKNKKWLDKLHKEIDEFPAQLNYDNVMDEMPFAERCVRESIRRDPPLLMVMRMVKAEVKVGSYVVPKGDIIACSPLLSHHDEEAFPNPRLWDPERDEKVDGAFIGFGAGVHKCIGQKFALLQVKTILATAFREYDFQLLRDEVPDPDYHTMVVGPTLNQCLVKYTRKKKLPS

[3] = T. cruzi-infected myoblasts, 72 h treatment
[4] = Trypanosoma cruzi, Myoblast, 72 h, T. cruzi-infected myoblasts, 72 h treatment
[5] = spectral mode, four serial dilutions 2 µM to 12.5 µM, 2 µM CYP51
[6] = Trypanosoma cruzi, Myoblast, 72 h

| SMILES | HTS binding score (T. cruzi CYP51; [5]) | also measured |
| --- | --- | --- |
| Cc1ccc(/C(=C\n2ccnc2)c2ccccc2)cc1 [Compound 10] | – | EC50 [1, 3]: 0.92 µM; EC50 [1, 4]: 0.95 µM; Toxicity score (highest percentage of host cell growth inhibition) [2]: 4 (4-41-50%) |
| Cc1ccc(C)c(OCCCCn2ccnc2)c1 [Compound 17] | 4 | EC50 [1, 4]: 2.36 µM |
| O=C(Cn1ccnc1)c1ccc(Cl)cc1Cl [Compound 26] | 2 | EC50 [1, 6]: 4.53 µM |
| Cc1ccc(C)c(CN2CCCCC2c2cccnc2)c1 (stereo not drawn) [Compound 48] | 4 | EC50 [1, 6]: 8.24 µM |
| O=C(/C(=C/c1ccc(F)cc1)n1cncn1)c1ccc(Cl)cc1Cl [Compound 43] | – | EC50 [1, 6]: 7.8 µM; Toxicity score (highest percentage of host cell growth inhibition) [2]: 3 (3- 31-40%) |
| O=C(NCCc1ccncc1)Nc1ccc(Cl)c(Cl)c1 [Compound 20] | – | EC50 [1, 6]: 2.55 µM; Toxicity score (highest percentage of host cell growth inhibition) [2]: 1 (1-<20%) |
| CC1=Nc2ncnn2C(c2cccnc2)/C1=C(\O)OC1CCCCC1 (stereo not drawn) [Compound 55] | – | EC50 [1, 6]: 9.54 µM; Toxicity score (highest percentage of host cell growth inhibition) [2]: 1 (1-<20%) |
| COc1cccc(/C=C/c2ccncc2)c1OC [Compound 24] | 2 | EC50 [1, 6]: 2.98 µM |
| Cc1ccc(OCCCCCn2ccnc2)cc1C [Compound 4] | – | EC50 [1, 3]: 0.548 µM; EC50 [1, 4]: 0.55 µM; Toxicity score (highest percentage of host cell growth inhibition) [2]: 3 (3- 31-40%) |
| CCn1c(C(=O)NCc2cccnc2)cc2oc3ccccc3c21 [Compound 16] | – | EC50 [1, 6]: 2.2 µM; Toxicity score (highest percentage of host cell growth inhibition) [2]: 4 (4-41-50%) |
| CCO/C(O)=C1/C(C)=NC2=C(C(=O)CC(c3ccccc3)C2)C1c1cccnc1 (stereo not drawn) [Compound 28] | – | EC50 [1, 4]: 5 µM; HTS binding score (T. cruzi CYP51; type II difference spectra scored 0-5, second highest rated hit compound cluster): 4 |
| O=P(Nc1cccnc1)(Oc1ccccc1Cl)Oc1ccccc1Cl [Compound 138] | 5 | – |
| CCn1c(C(=O)NCc2cccnc2)cc2oc3ccccc3c21 [Compound 79] | 4 | – |
| O=C(CSc1nc(-c2cccs2)cc(C(F)(F)F)n1)NCc1ccncc1 [Compound 150] | 4 | – |
| COc1cc2c(cc1OC)C(C(=O)N1CCC(Cc3ccccc3)CC1)C(c1cccnc1)N(C)C2=O (stereo not drawn) [Compound 185] | 4 | – |
| COc1ccc(CNc2nc3ccccc3c3nc(-c4ccncc4)nn23)cc1 [Compound 132] | 5 | – |
| CCc1nc(SCc2cccnc2)c(C#N)c(C(F)(F)F)c1C [Compound 97] | 5 | – |
| COC(=O)C1=C(N)Oc2cc(C)oc(=O)c2C1c1cccnc1 (stereo not drawn) [Compound 73] | 4 | – |
| c1cc(-c2nnn(CCOCCn3nnc(-c4ccncc4)n3)n2)ccn1 [Compound 117] | 4 | – |
| COc1cccc(C2C(C(=O)Nc3cccnc3)=C(C)Nc3nc(-c4cccs4)nn32)c1 (stereo not drawn) [Compound 169] | 4 | – |
| CCCC/N=C(\S)N1CCn2cccc2C1c1cccnc1 (stereo not drawn) [Compound 30] | – | EC50 [1, 6]: 6.33 µM |
| COc1ccc(NC(=O)C2=C(C)Nc3nc(-c4ccccc4)nn3C2c2ccncc2)cc1 (stereo not drawn) [Compound 166] | 5 | – |
| Cc1cc(C=C2C(=O)c3ccccc3C2=O)c(C)n1-c1ccncc1 [Compound 85] | 4 | – |
| CC1(C)CC(=O)C2=C(C1)c1c(ccc3ccccc13)NC2c1cccnc1 (stereo not drawn) [Compound 114] | 5 | – |
| COc1cc(OC)cc(-c2nc3n(n2)C(c2ccncc2)C2=C(O)CC(C)(C)CC2=N3)c1 (stereo not drawn) [Compound 162] | 4 | – |

| SMILES | HTS binding score (T. cruzi CYP51; [5]) | also measured |
| --- | --- | --- |
| CC(C)(C)Nc1c(-c2ccncc2)nc2ccc(Br)cn12 [Compound 105] | 4 | – |
| COc1ccc(-c2cc(C(F)(F)F)nc(NCc3cccnc3)n2)cc1OC [Compound 137] | 4 | – |
| Cc1ccc2nc(NC(=O)C3CCN(S(=O)(=O)c4cccnc4)CC3)sc2c1 [Compound 152] | 4 | – |
| O=C1C(c2ccncc2)N(CCC2=CCCCC2)C(=O)CN1C1CCCCC1 (stereo not drawn) [Compound 131] | 4 | – |
| O=C(Cc1cccc(O)c1)Nc1cc(-c2ccncc2)cnc1O [Compound 80] | 4 | – |
| O=C(CCc1nc(-c2ccc(Cl)cc2)no1)Nc1cccnc1 [Compound 86] | 4 | – |
| COc1cccc(-c2noc(C(=O)NCCCn3ccnc3)n2)c1 [Compound 84] | 4 | – |
| COc1ccc(-c2nc3n(n2)C(c2cccs2)C(C(=O)Nc2cccnc2)=C(C)N3)cc1 (stereo not drawn) [Compound 170] | 4 | – |
| COc1ccc(C(=O)C(OC(=O)c2ccncc2)c2ccccc2)cc1 (stereo not drawn) [Compound 106] | 4 | – |
| CC1=C(C(=O)Nc2cccnc2)C(c2ccc(Cl)cc2)n2nc(CCCO)nc2N1 (stereo not drawn) [Compound 160] | 4 | – |
| COc1ccc(-c2[nH]nc3c2C(c2cccnc2)NC3=O)cc1 (stereo not drawn) [Compound 65] | 4 | – |
| COc1cc(OC)cc(-c2cc3nc(C)c(CCC(=O)Nc4cccnc4)c(C)n3n2)c1 [Compound 163] | 4 | – |
| Cc1ccc(S(=O)(=O)N(CC(=O)NCc2cccnc2)c2cccc(Br)c2)cc1 [Compound 180] | 4 | – |
| Cc1sc(NC(=O)c2ccco2)c(C(c2cccnc2)N2CCN(CCO)CC2)c1C (stereo not drawn) [Compound 168] | 4 | – |
| O=C(CN(Cc1ccccc1)S(=O)(=O)c1ccccc1)NCc1ccncc1 [Compound 139] | 5 | – |
| Cc1ccc(S(=O)(=O)NCCCOC(=O)Nc2ccncc2)cc1 [Compound 110] | 5 | – |
| O=C(c1ccc(Cl)cc1)C(Oc1ccc(Cl)cc1)n1cncn1 (stereo not drawn) [Compound 107] | 5 | – |
| O=C(CCCCCN1C(=O)c2cccc3cccc(c23)C1=O)NCc1cccnc1 [Compound 141] | 4 | – |
| CC(NC(=O)C12CC3CC(C1)CC(n1cncn1)(C3)C2)C12CC3CC(CC(C3)C1)C2 (stereo not drawn) [Compound 148] | 4 | – |
| Cn1c(=O)c2c(nc(NCc3cccnc3)n2Cc2cccc3ccccc23)n(C)c1=O [Compound 161] | 4 | – |
| O=C(Nc1ccncc1)c1ccc(NS(=O)(=O)c2cccc(Cl)c2)cc1 [Compound 135] | 4 | – |
| O=C(CSc1nc(-c2ccc(F)cc2)cc(C(F)(F)F)n1)NCc1ccncc1 [Compound 155] | 4 | – |
| CC(C)(C)NC(=O)c1cccc(NC(=O)c2ccc3c(c2)C(=O)N(Cc2cccnc2)C3=O)c1 [Compound 176] | 4 | – |
| N=C(NOC(=O)c1ccc(Br)o1)c1ccncc1 [Compound 69] | 4 | – |
| COc1cc(OC)cc(-c2cc3nc(C)c(CCC(=O)NCc4cccnc4)c(C)n3n2)c1 [Compound 171] | 5 | – |
